Consider one compound from patent publication US8597646B2, “Methods and compositons featuring TGF-beta antagonists for the treatment of marfan syndrome and associated disorders” (The Johns Hopkins University, priority 2005, dated 2013).

Holding throughout (assay type): in vivo, mouse
Experiment [1] concerns C1039G/+ mice. The experiment is described as follows: Aortic wall histology (elastic matrix architecture) in treated C1039G/+ mice. The following applies: 4 months of treatment.
The test system of experiment [2] is Fbn1C1039G/+ mice. The experiment is described as follows: Steady-state skeletal muscle architecture and fiber cross sectional area in Fbn1C1039G/+ mice. Particulars: for Steady-state muscle architecture, in words: fibrillin-1 deficient mice, monopotassium salt. Here is the method:
Wild-type and Fbn1^C1039G/+ mice received intraperitoneal injections of TGFβ-neutralizing antibody (R&D Systems, once every two weeks) starting at 7 weeks of age. The antibody was diluted in PBS (pH 7.4) and administered at a dose of 1 mg/kg or 10 mg/kg body weight. Rabbit IgG (10 mg/kg; Zymed Laboratories Inc.) was administered in a similar fashion as a negative control. Mice were sacrificed after 2 months of treatment and a minimum of 6 mice per genotype were used for histologic and morphometric analyses.
Mice were continued on oral therapy for 6 months and sacrificed. […] Age-matched wild-type and mdx mice (placebo-treated) served as a control group. After 6 months of treatment, forelimb and hindlimb grip strength was assessed using an automated grip strength meter (Columbus Instruments, Columbus, Ohio). The experiments for forelimb and hindlimb grip strength testing were conducted at different days allowing for a minimum recovery period of 10 days. Total peak force (in Newtons) was determined by an electronic strain gauge as previously described and corrected for body weight (Wagner, K. R., et al. (2002) Ann Neurol 52, 832-6). Five measurements within 2 minutes were taken from each animal. […] The degree of fatigue was calculated by comparing the first two pulls to the last two pulls with the decrement between pulls 1+2 and pulls 4+5 providing a measure of fatigue. […]
For morphometric analyses, skeletal muscle was flash frozen in cooled isopentane and mounted in Tragacanth (Sigma Aldrich, USA). […] Muscle fibers were counted in a defined area (9 mm^2) of the tibialis anterior muscle of 10-day-old wild-type (n=3) and Fbn1C1039G/C1039G mice (n=6) and fiber diameter was determined by measuring the shortest fiber axis within cross-sections of the tibialis anterior muscle, counting a total of 850-1500 fibers. The cross sectional area of undamaged and regenerating myofibers of the tibialis anterior muscle from wild-type and Fbn1^C1039G/+ mice was expressed as a distribution of the percentage of the total number of myofibers analyzed (850-1500) (Horsley, V. et al (2003) Cell 113, 483-94). […]

For experiment [3], the system named is C1039G/+ mice. Nature of the experiment: Aortic root growth by echocardiography in C1039G/+ mice, 4 months of treatment. Here is the method: Markers of TGFβ antagonism have included reduced plasma levels of free TGFβ, reduced intracellular initiation of the TGFβ signaling cascade, and reduced tissue expression of TGFβ-responsive genes. […] Three independent measurements of the aortic root were made from the long axis echo view in systole at each of 3 time points (baseline, 2 and 4 months of treatment; FIG. 8A). All analyses were performed blinded to genotype and treatment arm. […] This represents the first therapeutic strategy for MFS that derives from interrogation of disease pathogenesis and the first possibility for primary prevention of disease manifestations.

Experiment [4] concerns TGFβ signaling cascade (TSP1, pSmad2, periostin). Nature of the experiment: Immunofluorescent analysis of proteins downstream of angiotensin II type 1 receptor in mdx muscle. The following applies: monopotassium salt. Here is the method:
Immunofluorescent studies were performed as previously described (Cohn, R. D. et al. (2002) Cell 110, 639-48). […] The following antibodies were used in this study: goat polyclonal anti-pSmad 2/3, rabbit polyclonal anti c-met and rabbit polyclonal anti-myogenin (all from Santa Cruz Biotechnology Inc.); rabbit polyclonal anti-pSmad2 (#3104, Cell Signal) rat polyclonal anti-lamininyl, rabbit polyclonal anti-dystrophin, rabbit polyclonal antithrombospondin-1 and rabbit polyclonal anti-periostin (all from Abcam); rabbit polyclonal anti-fibrillin-1 (pAb 9543) (Judge, D. P. et al. (2004) J Clin Invest 114, 172-81); goat polyclonal anti-vimentin (Sigma) and, mouse monoclonal anti-beta-sarcoglycan mouse monoclonal anti-developmental myosin (Novocastra). Anti a-dystroglycan antibody IIH6 was generously supplied by Dr. Kevin Campbell, Iowa. Secondary Alexa fluor donkey anti-rabbit, anti-rat, anti mouse IgM and IgG1 and anti-goat conjugated antibodies (Molecular probes) were applied for 1 hour at room temperature. Nuclei were stained with DAPI for 5 minutes, and inverted coverslips were mounted onto glass slides using Cytoseal (Vector Laboratories).
It has recently been shown that thrombospondin-1 (TSP1) acts as a potent mediator of angiotensin II induced TGF-beta activation via AT I R (Zhou Y, et al. (2006) Biochem Biophys Res Commun. 339, 633-641). […] Therefore, the expression of dystrophin, a-dystroglycan and R-sarcoglycan in losartan-treated and untreated mdx mice was investigated.

Experiment [5] has as its system Fbn1C1039G/+ mice. The experiment is described as follows: Postnatal treatment with losartan and propranolol, aorta of Fbn1C1039G/+ mice. The following applies: for Aortic root growth rate: during 6 months of treatment. The source says:
However, before treatment, the aortic diameter in Fbn1C1039G/+ mice was always greater than in untreated wild-type mice (1.59±0.11 mm; P<0.002).
Three independent aortic root measurements were obtained for each mouse every 2 months during the 6 months of treatment. Mice were killed at 8 months of age. […] The aortic root growth rate over this period was less in the wild-type mice than in the placebo-treated Fbn1C1039G/+ mice (P<0.0001, FIG. 21I).

Where [6] appears, read: 6 months of treatment, monopotassium salt.

“Also recorded” adds a separate entry of the source.

Turning to `CCCCc1nc(Cl)c(CO)n1Cc1ccc(-c2ccccc2-c2nnn[nH]2)cc1.[K]` [losartan, 2-butyl-4-chloro-1-[p-(o-1H-tetrazol-5-ylphenyl)benzyl]imidazole-5-methanol monopotassium salt], the “Elastic matrix architecture / histologic parameters of the aorta” value in the experiment with C1039G/+ mice [1] is on record as “normalized”. Moreover, the “Steady-state muscle architecture, in words” value in the experiment on Fbn1C1039G/+ mice [2] (listed as Losartan) is given as “rescued; also recorded: normalized”. For the same compound, in the experiment on Fbn1C1039G/+ mice [2], the “Steady-state muscle architecture, in words” value is given as “fully normalized”. The “Mean fiber size (muscle fiber cross sectional area)” value in the experiment with Fbn1C1039G/+ mice [2] (steady state, postnatal losartan, untreated 1746±39, wild-type 2741±69) turned out to be 2527±58 μm^2. In addition, the “Aortic growth during the 4 months of treatment” value in the experiment on C1039G/+ mice [3] (C1039G/+ mice from 7 weeks of age, losartan 50 mg/kg or propranolol 40 mg/kg, aortic root, echo, placebo 0.44±0.09) came out at 0.03±0.07 mm. In addition, in the experiment on C1039G/+ mice [3] (C1039G/+ mice, compared with wild-type or with losartan), the “Aortic growth / protection, in words” value is “indistinguishable from that seen in wild-type mice”. Moreover, the “Expression of thrombospondin-1 (TSP1)” value in experiment [4] (mdx diaphragm and other muscles) is “greatly reduced expression of TSP1”. Further, in experiment [4] (mdx mice), the “Dystrophin, a-dystroglycan, sarcoglycan expression / ubiquitin mediated proteolysis” value is reported as “did not have any impact; also recorded: absent”; the “Nuclear accumulation of pSmad2 and sarcolemmal expression of periostin” value is given as “did not show any significant nuclear accumulation of pSmad2 or sarcolemmal expression of periostin; also recorded: diminished”. In the experiment with Fbn1C1039G/+ mice [5] (setting [6]), the “Aortic wall / elastic fiber architecture” value is given as “full normalization relative to wild-type mice” and the Aortic wall thickness entry was “full normalization relative to wild-type mice; also recorded: indistinguishable from that seen in wild-type mice”. In addition, in the experiment with Fbn1C1039G/+ mice [5] (listed as Losartan, monopotassium salt), the “Aortic root growth rate” value is listed as “normalizes growth rate”. In addition, the “Aortic root growth rate” value in the experiment with Fbn1C1039G/+ mice [5] (monopotassium salt) was “indistinguishable from that in the wild-type group”. In addition, the “Elastic fiber fragmentation (VVG staining)” value with Fbn1C1039G/+ mice [5] (from 7 weeks of age, 6 months, drinking water, monopotassium salt) is listed as “prevented elastic fiber fragmentation; also recorded: Elastic lamellae are intact”. Besides, in the experiment with Fbn1C1039G/+ mice [5] (from 7 weeks of age, 6 months, monopotassium salt), the “TGF-β signaling in aortic media (nuclear pSmad2)” value is given as “blunted TGF-β signaling; also recorded: Nuclear pSmad2 staining is decreased”. In the experiment with Fbn1C1039G/+ mice [5] (versus untreated wild-type littermates), the “Absolute diameter of the aortic root at the end of treatment” value is on record as “similar”.
